Experimental data published in patent US20200352889A1, “CYSTATHIONINE COMPOSITIONS AND METHODS OF TREATMENT FOR HEALTH CONDITIONS” (THE REGENTS OF THE UNIVERSITY OF COLORADO, A BODY CORPORATE, priority 2011, published 2020).
Residues, ends and D or L forms follow the SMILES beside them. *: point of attachment. Cbz = O=C(OCc1ccccc1)*; CH2F = FC*

Experiments:
HepG2 cells [1] = assay: Tunicamycin or thapsagargin induced cell death in HepG2 cells, comparison with Z-VAD-FMK; format: cell-based, human; settings: p>0.05 for Z-VAD-FMK
A293AD kidney cells = assay: Thapsagargin-induced cell death, LDH release, A293AD kidney cells; format: cell-based, human
Description: It was previously shown that cystathionine can protect against ER stress induced cell death induced by the glycosylation inhibitor tunicamycin. In order to investigate if this protective effect was limited to tunicamycin, it was investigated whether cystathionine (1 mM) could protect A293AD kidney cells against ER stress induced cell death mediated by the calcium metabolism inhibitor compound thapsagargin (1 uM). Cell death was monitored by measuring LDH release into culture media. In order to investigate if cystathionine was simply blocking apoptosis, the effect of thapsagargin in the presence of the known apoptosis inhibitor Z-VAD-FMK was investigated. […] While it is not necessary to understand the mechanism of action, it is believed that 1.

a23 cells = assay: Tunicamycin-induced cell death, LDH release, transsulfuration negative a23 cells; format: cell-based, Chinese hamster; settings: CBS and CGL negative, p<0.0001
Source text: However, examination of a direct effect of exogenously added cystathionine is not currently possible in a whole animal model because of complications with the compounds solubility and rapid kinetics of its excretion. In order to investigate the direct effects of cystathionine against ER stress-induced cell death, the cytotoxicity of tunicamycin in the human embryonic kidney cell line 293AD and the human hepatoma cell line HepG2 in the presence and absence of both PPG and exogenously added cystathionine was examined. Preliminary experiments confirmed that both of these cell lines express both CBS and CGL (data not shown). In order to investigate the possible protective effects of cystathionine in the absence of transsulfuration, these experiments were repeated with the CBS and CGL negative Chinese hamster fibroblast line a23 (6).
Cells were seeded in triplicate at ˜75% confluence and pre-treated with either PPG) (5 mM), Cystathionine (1 mM) or with just complete media (DMEM, 10% FBS) as a control. […] To further evaluate a role for cystathionine in resisting the induction of cell death by tunicamycin, cell lysis was quantified by assaying lactate dehydrogenase (LDH) release. The enzyme activity was determined spectrophotometrically and the amount of enzyme leak was expressed as a percentage of the LDH activity observed in untreated control cells. […]

Grp78, Grp94, GADD153 = assay: Northern and Western blotting of UPR induction in 293AD cells; format: cell-based, human
Description: To further assess the effect of cystathionine upon induction of the UPR and GADD153 by ER stress Northern and Western blotting experiments were performed.
Immunoblot analysis of total cell lysates was performed as described previously (4,14). Briefly, following incubation with the appropriate primary and horseradish peroxidase-conjugated secondary antibodies (Affinity Biologicals, Ancaster, ON, Canada) membranes were developed using the Renaissance® Western Blot Chemiluminescence Reagent Kit, (Perkin Elmer, Woodbridge, ON, Canada). Proteins were transferred on a nitrocellulose membrane, and probed with anti-KDEL monoclonal antibody, which recognizes Hsp70, GRP78 and GRP94 that was purchased from Stressgen Biotechnologies (SPA-827) or anti GADD153 (Santa Cruz Biotech #SC-7351). Anti-β-Actin monoclonal antibody (Sigma) was used as a loading control.
Total RNA was isolated from 293AD cells using the RNeasy® total RNA kit (Qiagen, Santa Clarita, Calif.) and resuspended in diethylpyrocarbonate (DEPC)-treated water. Quantification and purity of the RNA was assessed by A260/A280 absorption, and RNA samples with ratios greater than 1.6 were stored at […] for further analysis. Total RNA (10 μg/lane) was fractionated on 2.2 mol/L formaldehyde/1.2% agarose gels and transferred overnight onto Zeta-Probe® GT nylon membranes (Bio-Rad, Toronto, Canada) in 10×SSC. The RNA was cross-linked to the membrane using a UV crosslinker (PDI Bioscience, Toronto, Canada) before hybridization. Specific probes were generated by labeling cDNA fragments with [−32P]dCTP (NEN) using a random primed DNA labeling kit (Boehringer Mannheim, Laval, Canada). The cDNA probe for GADD153 (no. AA627477) was obtained from Genome Systems (St Louis, Mo.). The cDNA probe used for GRP78 is a full length cDNA clone that has been described previously (4). After overnight hybridization at 43° C., the membranes were washed as described by the manufacturer, exposed to x-ray film, and subjected to autoradiography.

HepG2 cells [2] = assay: Tunicamycin-induced cell death, LDH release, HepG2 cells; format: cell-based, human; settings: data not shown
Description: Cells were seeded in triplicate at ˜75% confluence and pre-treated with either PPG) (5 mM), Cystathionine (1 mM) or with just complete media (DMEM, 10% FBS) as a control. After 24 hr pre-treatment, cells looked normal, with minimal floating cells. Fresh media with 1% FBS was then added to each well, the cells were further treated with Tm (either 5 or 10 ug)/ml. After 18 hr. treatment with Tunicamycin, cells were photographed under phase-contrast with a Zeiss Axiovert 25 microscope for evidence of dead floating cells. Cells from the group treated solely with tunicamycin became strikingly hyper-refringent, detached from the substratum and floated in the media. […] To further evaluate a role for cystathionine in resisting the induction of cell death by tunicamycin, cell lysis was quantified by assaying lactate dehydrogenase (LDH) release. The enzyme activity was determined spectrophotometrically and the amount of enzyme leak was expressed as a percentage of the LDH activity observed in untreated control cells. […]
Cells were seeded in triplicate at ˜75% confluence and pre-treated with either PPG) (5 mM), Cystathionine (1 mM) or with just complete media (DMEM, 10% FBS) as a control. […] To further evaluate a role for cystathionine in resisting the induction of cell death by tunicamycin, cell lysis was quantified by assaying lactate dehydrogenase (LDH) release. […]

[3] = Urinary excretion of cystathionine in mice; format: in vivo, mouse
[4] = Solubility of cystathionine in water; format: physicochemical
293AD cells = assay: Tunicamycin-induced cell death, LDH release and phase-contrast, 293AD cells; format: cell-based, human
Description: Cells were seeded in triplicate at ˜75% confluence and pre-treated with either PPG) (5 mM), Cystathionine (1 mM) or with just complete media (DMEM, 10% FBS) as a control. After 24 hr pre-treatment, cells looked normal, with minimal floating cells. Fresh media with 1% FBS was then added to each well, the cells were further treated with Tm (either 5 or 10 ug)/ml. After 18 hr. treatment with Tunicamycin, cells were photographed under phase-contrast with a Zeiss Axiovert 25 microscope for evidence of dead floating cells. Cells from the group treated solely with tunicamycin became strikingly hyper-refringent, detached from the substratum and floated in the media. […] To further evaluate a role for cystathionine in resisting the induction of cell death by tunicamycin, cell lysis was quantified by assaying lactate dehydrogenase (LDH) release. The enzyme activity was determined spectrophotometrically and the amount of enzyme leak was expressed as a percentage of the LDH activity observed in untreated control cells.
HepG2, 293AD and a23 cells were seeded in triplicate at ˜75% confluence and were pre-treated with either propargylglycine (PPG) (5 mM) or cystathionine (5 mM) in complete media (DMEM, 10% FBS). After 24 hours, fresh media with 1% FBS was added to each well. Cells were then further treated with tunicamycin (either 5 or 10 ug/ml) for 18 hr treatment. Cells were subsequently photographed under phase-contrast with a Zeiss Axiovert 25 microscope for evidence of dead floating cells. To quantify cell death the media supernatant was collected for LDH release assay using a kit from Roche Applied Science (Cat.No.11 644 793 001) according to the manufacturer's standard protocol where cytotoxicity (%)=((experimental value-low control/(high control-low control))×100.
Cells were seeded in triplicate at ˜75% confluence and pre-treated with either PPG) (5 mM), Cystathionine (1 mM) or with just complete media (DMEM, 10% FBS) as a control. After 24 hr. pre-treatment, cells looked normal, with minimal floating cells. Fresh media with 1% FBS was then added to each well, the cells were further treated with Tm (either 5 or 10 ug)/ml. After 18 hr. treatment with Tunicamycin, cells were photographed under phase-contrast with a Zeiss Axiovert 25 microscope for evidence of dead floating cells. Cells from the group treated solely with tunicamycin became strikingly hyper-refringent, detached from the substratum and floated in the media. […] To further evaluate a role for cystathionine in resisting the induction of cell death by tunicamycin, cell lysis was quantified by assaying lactate dehydrogenase (LDH) release. The enzyme activity was determined spectrophotometrically and the amount of enzyme leak was expressed as a percentage of the LDH activity observed in untreated control cells.

Row | Compound | protection against cell death induced by thapsagargin (HepG2 cells [1]) | protection against cell death induced by tunicamycin (HepG2 cells [1]) | reduction of total cell death (A293AD kidney cells; thapsagargin 1 uM) | reduction in tunicamycin induced cell death (LDH release) (a23 cells) [fold] | expression of Grp78, Grp94 and GADD15 in control cells (Grp78, Grp94, GADD153; PPG 5 mM or cystathionine 5 mM, no tunicamycin) | scale of induction of Grp78, Grp94 and GADD153 in the presence of tunicamycin (Grp78, Grp94, GADD153; tunicamycin 5 and 10 μg/ml) | protection against tunicamycin-induced cell death compared with 293AD cells (HepG2 cells [2]) | excretion in urine [3] | solubility in water [4] | reduction in cell death (LDH release) (293AD cells; 293AD cells, tunicamycin 10 μg/ml 18 hr, 24 hr pre-treatment PPG 5 mM or cystathionine 1 mM, p<0.0001) [fold] | floating dead cells (phase-contrast) (293AD cells; tunicamycin 18 hr after PPG or cystathionine pre-treatment) | cell death in cystathionine control (A293AD kidney cells; cystathionine 1 mM alone) | protection against thapsagargin induced cell death (LDH release) (A293AD kidney cells; cystathionine 1 mM, thapsagargin 1 uM)
1 | COC(=O)C[C@H](NC(=O)[C@H](C)NC(=O)[C@@H](NC(=O)OCc1ccccc1)C(C)C)C(=O)CF [Z-VAD-FMK] (Cbz-Val-Ala-Asp(OMe)-CH2F) | only modest protection | only modest protection | approximately 20% | – | – | – | – | – | – | – | – | – | –
2 | NC(CSCC[C@@H](N)C(=O)O)C(=O)O (stereo partly drawn) [cystathionine, R—S-(2-Amino-2-carboxyethyl)-L-homocysteine] | much greater protective effects | much greater protective effects | – | 16 | Neither PPG nor exogenously added cystathionine induced expression | Nor did either of these treatments significantly alter the scale of induction | Essentially identical results | rapidly excreted in the urine | relatively low solubility in water | 27 | No floating dead cells were observed | No cell death was observed | highly significant protective effects
